Measured values taken from patent US8383629B2, “Inhibitors of 11β-hydroxysteroid dehydrogenase type 1” (Vitae Pharmaceuticals, Inc., priority 2008, dated 2013).

Biological target: T1, human 11β-HSD1 (Homo sapiens, UniProt P28845)
T1 construct: expressed in transfected cells; host or cells: CHO cells (microsomes)
Test: Inhibition of microsomal preparation of 11β-HSD1 (SPA, Biological Test Example 1)
Format: biochemical
Details: for inhibition at 0.111 µM: 111 nM; for IC50: microsomes from CHO cells overexpressing human 11β-HSD1, read-out: IC50 Range; for inhibition at 0.1 µM: 100 nM
Protocol: The inhibition of microsomal preparation of 11β-HSD1 by compounds of the invention was measured essentially as previously described (K. Solly, S. S. Mundt, H. J. Zokian, G. J. Ding, A. Hermanowski-Vosatka, B. Strulovici, and W. Zheng, High-Throughput Screening of 11-Beta-Hydroxysteroid Dehydrogenase Type 1 in Scintillation Proximity Assay Format. Assay Drug Dev Technol 3 (2005) 377-384). All reactions were carried out at rt in 96 well clear flexible PET Microbeta plates (PerkinElmer). The assay begins by dispensing 49 μl of substrate solution (50 mM HEPES, pH 7.4, 100 mM KCl, 5 mM NaCl, 2 mM MgCl2, 2 mM NADPH and 160 nM [^3H]cortisone (1 Ci/mmol)) and mixing in 1 μL of the test compounds in DMSO previously diluted in half-log increments (8 points) starting at 0.1 mM. After a 10 minute pre-incubation, 50 μL of enzyme solution containing microsomes isolated from CHO cells overexpressing human 11β-HSD1 (10-20 μg/ml of total protein) was added, and the plates were incubated for 90 minutes at rt. The reaction was stopped by adding 50 μl of the SPA beads suspension containing 10 μM 18β-glycyrrhetinic acid, 5 mg/ml protein A coated YSi SPA beads (GE Healthcare) and 3.3 μg/ml of anti-cortisol antibody (East Coast Biologics) in Superblock buffer (Bio-Rad). The plates were shaken for 120 minutes at rt, and the SPA signal corresponding to [^3H]cortisol was measured on a Microbeta plate reader.

T1 sequence (P28845 whole entry): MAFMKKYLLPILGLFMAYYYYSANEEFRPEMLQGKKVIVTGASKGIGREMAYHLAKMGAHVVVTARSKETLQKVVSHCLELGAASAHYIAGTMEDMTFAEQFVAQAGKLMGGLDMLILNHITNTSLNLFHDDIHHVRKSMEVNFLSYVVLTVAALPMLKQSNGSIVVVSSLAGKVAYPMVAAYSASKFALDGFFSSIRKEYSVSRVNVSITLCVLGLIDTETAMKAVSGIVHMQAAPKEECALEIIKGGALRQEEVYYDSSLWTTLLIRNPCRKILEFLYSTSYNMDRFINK

Compound | inhibition at 0.111 µM [%] | IC50 [nM] | inhibition at 0.1 µM [%]
O=C1NC2(CCN(C(=O)Cc3ccccc3C(F)(F)F)CC2)c2c(Cl)cc(Cl)cc21 [EXAMPLE 50, 5,7-dichloro-1′-(2-(2-(trifluoromethyl)phenyl)acetyl)spiro[isoindoline-1,4′-piperidin]-3-one] | 68.9 | 100 to 1000 | 
O=C(O)CC1CC2(CCN(C(=O)Cc3ccccc3C(F)(F)F)CC2)c2c(Cl)cccc21 (centres unmarked) [EXAMPLE 51, 2-(7-chloro-1′(2-(2-(trifluoromethyl)phenyl)acetyl)-2,3-dihydrospiro[indene-1,4′-piperidine]-3-yl)acetic acid] |  | < 100 | 76.8
O=C(O)CC1CC2(CCN(C(=O)Cc3ccccc3OC(F)(F)F)CC2)c2c(Cl)cccc21 (centres unmarked) [EXAMPLE 52, 2-(7-chloro-1′-(2-(2-(trifluoromethoxy)phenyl)acetyl)-2,3-dihydrospiro[indene-1,4′-piperidine]-3-yl)acetic acid] |  | < 100 | 61.2
O=C(O)CC1CC2(CCN(C(=O)Cc3ccc(F)cc3C(F)(F)F)CC2)c2c(Cl)cccc21 (centres unmarked) [EXAMPLE 53, 2-(7-chloro-1′(2-(4-fluoro-2-(trifluoromethyl)phenyl)acetyl)-2,3-dihydrospiro[indene-1,4′-piperidine]-3-yl)acetic acid] |  | < 100 | 67.2
O=C(O)CC1CC2(CCN(C(=O)Cc3ccc(Cl)cc3C(F)(F)F)CC2)c2c(Cl)cccc21 (centres unmarked) [EXAMPLE 54, 2-(7-chloro-1′(2-(4-chloro-2-(trifluoromethyl)phenyl)acetyl)-2,3-dihydrospiro[indene-1,4′-piperidine]-3-yl)acetic acid] |  | < 100 | 71.7
CN1C(=O)c2ccccc2C12CCN(C(=O)CCc1ccccc1C(F)(F)F)CC2 [EXAMPLE 55, 2-methyl-1′-(3-(2-(trifluoromethyl)phenyl)propanoyl)spiro[isoindoline-1,4′-piperidin]-3-one] | 76.5 | < 100 | 
CCOC(=O)CC1CC2(CCN(C(=O)CCc3ccccc3C(F)(F)F)CC2)c2c(Br)cccc21 (centres unmarked) [EXAMPLE 56, Ethyl 2-(7-bromo-1′-(3-(2-(trifluoromethyl)phenyl)propanoyl)-2,3-dihydrospiro[indene-1,4′-piperidine]-3-yl)acetate] | 92.7 | < 100 | 
CC(C)(C)OC(=O)N1Cc2ccccc2C2(CCN(C(=O)CCc3ccccc3C(F)(F)F)CC2)C1 [EXAMPLE 57, tert-butyl 1′-(3-(2-(trifluoromethyl)phenyl)propanoyl)-1H-spiro[isoquinoline-4,4′-piperidine]-2(3H)-carboxylate] | 37.6 | 100 to 1000 | 
O=C(O)CC1CC2(CCN(C(=O)CCc3ccccc3C(F)(F)F)CC2)c2c(Br)cccc21 (centres unmarked) [EXAMPLE 58, 2-(7-bromo-1′-(3-(2-(trifluoromethyl)phenyl)propanoyl)-2,3-dihydrospiro[indene-1,4′-piperidine]-3-yl)acetic acid] | 87.4 | < 100 | 97.1
O=C(CCc1ccccc1C(F)(F)F)N1CCC2(CC1)CNCc1ccccc12 [EXAMPLE 59, 1-(2,3-dihydro-1H-spiro[isoquinoline-4,4′-piperidine]-1′-yl)-3-(2-(trifluoromethyl)phenyl)propan-1-one] | 66.6 | < 100 | 
CS(=O)(=O)N1Cc2ccccc2C2(CCN(C(=O)CCc3ccccc3C(F)(F)F)CC2)C1 [EXAMPLE 60, 1-(2-(methylsulfonyl)-2,3-dihydro-1H-spiro[isoquinoline-4,4′-piperidine]-1′-yl)-3-(2-(trifluoromethyl)phenyl)propan-1-one] | 92.6 | < 100 | 
CN1C(=O)c2cccc(Cl)c2C12CCN(C(=O)CCc1ccccc1C(F)(F)F)CC2 [EXAMPLE 61, 7-chloro-2-methyl-1′-(3-(2-(trifluoromethyl)phenyl)propanoyl)spiro[isoindoline-1,4′-piperidin]-3-one] | 96.7 | < 100 | 93.3
